Tests used:
[1] = Metabolic stability in human liver microsomes; type: in vitro ADME; conditions: for difference in half-life and intrinsic clearance compared with the non-deuterated methylone hydrochloride: human liver microsomes; for half-life at 1 μM / microsomal CLint at 1 μM: pooled liver microsomes, pH 7.4, human liver microsomes 0.5 mg/mL, 1 μM compound, NADPH, 0-45 min
Method: Pooled liver microsomes are purchased from a reputable commercial supplier. Microsomes are stored at […] prior to use. Microsomes (final protein concentration 0.5 mg/mL), 0.1 M phosphate buffer pH 7.4 and test compound (final substrate concentration 1 μM; final DMSO concentration 0.25%) are preincubated at 37° C. prior to the addition of NADPH (final concentration 1 mM) to initiate the reaction. A minus cofactor control incubation is included for each compound tested where 0.1 M phosphate buffer pH 7.4 is added instead of NADPH (minus NADPH). Two control compounds are included with each species. All incubations are performed singularly for each test compound. Each compound is incubated for 0, 5, 15, 30 and 45 min. The control (minus NADPH) is incubated for 45 min only. The reactions are stopped by transferring incubate into acetonitrile at the appropriate time points, in a 1:3 ratio. The termination plates are centrifuged at 3,000 rpm for 20 min at 4° C. to precipitate the protein.
From a plot of ln peak area ratio (compound peak area/internal standard peak area) against time, the gradient of the line is determined. Subsequently, half-life and intrinsic clearance are calculated using the equations below:
where V=Incubation volume (μL)/Microsomal protein (mg)
Relevant control compounds were assessed, ensuring intrinsic clearance values fall within the specified limits (if available).

[2] = cited from earlier work
C57/BL6J mice = assay: Forced swim test (FST); type: in vivo, mouse; conditions: 24 h after administration
Method: As increased cortical structural plasticity in the anterior parts of the brain mediates the sustained (>24 h) antidepressant-like effects of ketamine and play a role in the therapeutic effects of 5-HT2A agonists, the impact of the present compounds on forced swim test (FST) behavior is evaluated. First, a pretest is used to induce a depressive phenotype. Compounds are administered 24 h after the pre-test, and the FST is performed 24 h and 7 d post compound administration.
Male C57/BL6J mice (9-10 weeks old at time of experiment) are obtained. After 1 week in the vivarium each mouse is handled for approximately 1 minute by the experimenter for 3 consecutive days leading up to the first FST. All experiments are carried out by the same experimenter who performs handling. During the FST, mice undergo a 6 min swim session in a clear Plexiglas cylinder 40 cm tall, 20 cm in diameter, and filled with 30 cm of 24±1° C. water. […] Immobility scores for all mice are determined after the pre-test and mice are randomly assigned to treatment groups to generate groups with similar average immobility scores to be used for the following two FST sessions. […] Experiments are video-recorded and manually scored offline. Immobility time—defined as passive floating or remaining motionless with no activity other than that needed to keep the mouse's head above water—is scored for the last 4 min of the 6 min trial.

Compound: Cl.[2H]C1([2H])Oc2ccc(C(=O)C(C)NC)cc2O1 (racemic) [(rac)-Methylone-d2 hydrochloride, 1-(benzo[d][1,3]dioxol-5-yl-2,2-d2)-2-((methyl)amino)propan-1-one HCl]
- difference in half-life and intrinsic clearance compared with the non-deuterated methylone hydrochloride [1]: demonstrated differences in half-life and intrinsic clearance
- half-life at 1 μM [1]: 2.45 h
- microsomal CLint at 1 μM [1]: 9.46 µL/min/mg

Compound: Cl.[2H]C([2H])([2H])NC(C)C(=O)c1ccc2c(c1)OCO2 (racemic) [(rac)-Methylone-d3 hydrochloride, 1-(benzo[d][1,3]dioxol-5-yl)-2-((methyl-d3)amino)propan-1-one HCl]
- difference in half-life and intrinsic clearance compared with the non-deuterated methylone hydrochloride [1]: demonstrated differences in half-life and intrinsic clearance
- half-life at 1 μM [1]: 2.88 h
- microsomal CLint at 1 μM [1]: 8.02 µL/min/mg

Compound: Cl.[2H]C([2H])([2H])NC(C)C(=O)c1ccc2c(c1)OC([2H])([2H])O2 (racemic) [(rac)-Methylone-d5 hydrochloride, 1-(benzo[d][1,3]dioxol-5-yl-2,2-d2)-2-((methyl-d3)amino)propan-1-one HCl]
- difference in half-life and intrinsic clearance compared with the non-deuterated methylone hydrochloride [1]: the most significant difference in half-life and intrinsic clearance
- half-life at 1 μM [1]: 3.05 h
- microsomal CLint at 1 μM [1]: 7.59 µL/min/mg

Compound: Cl.[2H]C1([2H])Oc2ccc(C(=O)[C@@H](C)NC)cc2O1 [(R)-Methylone-d2 hydrochloride, (R)-1-(benzo[d][1,3]dioxol-5-yl-2,2-d2)-2-((methyl)amino)propan-1-one HCl]
- difference in half-life and intrinsic clearance compared with the non-deuterated methylone hydrochloride [1]: demonstrated differences in half-life and intrinsic clearance
- half-life at 1 μM [1]: 3.3 h
- microsomal CLint at 1 μM [1]: 7 µL/min/mg

Compound: Cl.[2H]C([2H])([2H])N[C@H](C)C(=O)c1ccc2c(c1)OCO2 [(R)-Methylone-d3 hydrochloride, (R)-1-(benzo[d][1,3]dioxol-5-yl)-2-((methyl-d3)amino)propan-1-one HCl]
- difference in half-life and intrinsic clearance compared with the non-deuterated methylone hydrochloride [1]: demonstrated differences in half-life and intrinsic clearance
- half-life at 1 μM [1]: 3.57 h
- microsomal CLint at 1 μM [1]: 6.49 µL/min/mg

Compound: Cl.[2H]C([2H])([2H])N[C@H](C)C(=O)c1ccc2c(c1)OC([2H])([2H])O2 [(R)-Methylone-d5 hydrochloride, (R)-1-(benzo[d][1,3]dioxol-5-yl-2,2-d2)-2-((methyl-d3)amino)propan-1-one hydrochloride]
- difference in half-life and intrinsic clearance compared with the non-deuterated methylone hydrochloride [1]: the most significant difference in half-life and intrinsic clearance
- half-life at 1 μM [1]: 3.68 h
- microsomal CLint at 1 μM [1]: 6.27 µL/min/mg

Compound: Cl.[2H]C1([2H])Oc2ccc(C(=O)[C@H](C)NC)cc2O1 [(S)-Methylone-d2 hydrochloride, (S)-1-(benzo[d][1,3]dioxol-5-yl-2,2-d2)-2-(methylamino)propan-1-one hydrochloride]
- difference in half-life and intrinsic clearance compared with the non-deuterated methylone hydrochloride [1]: demonstrated differences in half-life and intrinsic clearance
- half-life at 1 μM [1]: 2.45 h
- microsomal CLint at 1 μM [1]: 9.41 µL/min/mg

Compound: Cl.[2H]C([2H])([2H])N[C@@H](C)C(=O)c1ccc2c(c1)OCO2 [(S)-Methylone-d3 hydrochloride, (S)-1-(benzo[d][1,3]dioxol-5-yl)-2-((methyl-d3)amino)propan-1-one HCl]
- difference in half-life and intrinsic clearance compared with the non-deuterated methylone hydrochloride [1]: demonstrated differences in half-life and intrinsic clearance
- half-life at 1 μM [1]: 2.4 h
- microsomal CLint at 1 μM [1]: 9.6 µL/min/mg

Compound: Cl.[2H]C([2H])([2H])N[C@@H](C)C(=O)c1ccc2c(c1)OC([2H])([2H])O2 [(S)-Methylone-d5 hydrochloride, (S)-1-(benzo[d][1,3]dioxol-5-yl-2,2-d2)-2-((methyl-d3)amino)propan-1-one hydrochloride]
- difference in half-life and intrinsic clearance compared with the non-deuterated methylone hydrochloride [1]: the most significant difference in half-life and intrinsic clearance
- half-life at 1 μM [1]: 2.55 h
- microsomal CLint at 1 μM [1]: 9.07 µL/min/mg

Compound: CNC(C)C(=O)c1ccc2c(c1)OCO2 (stereo not drawn) [Methylone, 3,4-methylenedioxy-N-methylcathinone]
- Oral Methylone Dose, Drug Activity Level Very Strong ([2]; oral, modified from WHO 2014): ≥270 mg
- effect of re-dose on duration of effects ([2]; re-dose of one-third to one-half the initial dose, WHO 2014): prolongs duration for approximately one hour

Compound: CNC1(c2ccccc2Cl)CCCCC1=O (stereo not drawn) [ketamine]
- immobility in forced swim test (C57/BL6J mice): significantly reduced immobility

Reference: patent US20240294488A1, “ISOTOPOLOGES, SALTS, CRYSTALLINE FORMS, STEREOISOMERS, OF METHYLONE AND ETHYLONE AND METHODS OF USE THEREOF” (Terran Biosciences Inc., priority 2021, published 2024)
